Test results from patent US20100040666A1, “Method for Control of Drug Elution Rate and Composition for Coating of Drug-Eluting Stent” (priority 2005, published 2010).

Assay: Elution test of compound represented by structural formula (2) from poly (MPC-co-BMA)
Type: physicochemical
Conditions: thin plate of stainless steel coated sequentially with compositions of Examples 1 to 3, immersed in distilled water
Description: Test 2: Elution Test of Compound Represented by Structural Formula (2)
The elution test of the compound represented by the structural formula (2) from poly (MPC-co-BMA) was conducted. The test sample was prepared by coating sequentially the compositions from Examples 1 to 3 to a thin plate of stainless steel. The prepared sample was immersed in distilled water, and then the amount of the eluted compound represented by the structural formula (2) was measured with time.
It can be verified that the compound represented by the structural formula (2) is eluted for about 100 hours. In addition, even after 100 hours, the compound represented by the structural formula (2) is eluted gradually for 400 hours, and thus it can be verified that controlled release is intended.

Question: For `CCOc1cccc(C(CC)n2nc(C(=O)O)c3c2-c2ccc(OCc4cncnc4)cc2CC3)c1` (centres unmarked) [structural formula (2)], which “time for which the compound is eluted (cumulative eluted amount, FIG. 3)” value is on record?
Answer: about 100 hours

Question: What about the “time for which the compound is eluted gradually, even after 100 hours (controlled release)” value of the same molecule?
Answer: 400 h
